Where a name gives a salt, the structure may show the parent alone. Read-outs that look alike come from different tables or passages of the source.
Legend:
Experiment in all cases: AK assay 384-well format, Prestwick library screening
E. faecium = format: cell-based, Enterococcus faecium; settings: 50 μM final drug concentration; for fold induction at 50 µM: Enterococcus faecium, 3 h
[1] = tested on: S. aureus strain USA300-0114; format: cell-based, Staphylococcus aureus; settings: 50 μM final drug concentration; for fold induction at 50 µM: Staphylococcus aureus, USA300, 3 h
K. pneumoniae = format: cell-based, Klebsiella pneumoniae; settings: 50 μM final drug concentration; for fold induction at 50 µM: Klebsiella pneumoniae, 3 h
[2] = tested on: A. baumannii strain 98-37-09; format: cell-based, Acinetobacter baumannii; settings: 50 μM final drug concentration; for fold induction at 50 µM: Acinetobacter baumannii, 983709, 3 h
P. aeruginosa = format: cell-based, Pseudomonas aeruginosa; settings: 50 μM final drug concentration; for fold induction at 50 µM: Pseudomonas aeruginosa, 3 h
E. cloacae = format: cell-based, Enterobacter cloacae; settings: 50 μM final drug concentration; for fold induction at 50 µM: Enterobacter cloacae, 3 h
E. coli = format: cell-based, Escherichia coli; settings: 50 μM final drug concentration; for fold induction at 50 µM: Escherichia coli, 3 h
[3] = planktonic, cutoff for positive 3-fold increase, read-out: AK-based Prestwick Library Screening Results, E. faecium (fold increase in extracellular AK activity)
[4] = planktonic, cutoff for positive 3-fold increase, read-out: AK-based Prestwick Library Screening Results, S. aureus (fold increase in extracellular AK activity)
[5] = planktonic, cutoff for positive 3-fold increase, read-out: AK-based Prestwick Library Screening Results, K. pneumoniae (fold increase in extracellular AK activity)
[6] = planktonic, cutoff for positive 3-fold increase, read-out: AK-based Prestwick Library Screening Results, A. baumannii (fold increase in extracellular AK activity)
[7] = planktonic, cutoff for positive 3-fold increase, read-out: AK-based Prestwick Library Screening Results, P. aeruginosa (fold increase in extracellular AK activity)
[8] = planktonic, cutoff for positive 3-fold increase, read-out: AK-based Prestwick Library Screening Results, E. cloacae (fold increase in extracellular AK activity)
[9] = planktonic, cutoff for positive 3-fold increase
[10] = cutoff for positive-scoring molecules 3-fold increase
[11] = 384-well format, cutoff for positive-scoring molecules 3-fold increase, read-out: AK-based Prestwick Library Screening Results, E. faecium (increase in extracellular AK activity)
[12] = 384-well format, cutoff for positive-scoring molecules 3-fold increase, read-out: AK-based Prestwick Library Screening Results, S. aureus (increase in extracellular AK activity)
[13] = 384-well format, cutoff for positive-scoring molecules 3-fold increase, read-out: AK-based Prestwick Library Screening Results, K. pneumoniae (increase in extracellular AK activity)
[14] = 384-well format, cutoff for positive-scoring molecules 3-fold increase, read-out: AK-based Prestwick Library Screening Results, A. baumannii (increase in extracellular AK activity)
[15] = 384-well format, cutoff for positive-scoring molecules 3-fold increase, read-out: AK-based Prestwick Library Screening Results, P. aeruginosa (increase in extracellular AK activity)
[16] = 384-well format, cutoff for positive-scoring molecules 3-fold increase, read-out: AK-based Prestwick Library Screening Results, E. cloacae (increase in extracellular AK activity)
[17] = 384-well format, cutoff for positive-scoring molecules 3-fold increase, read-out: AK-based Prestwick Library Screening Results, E. coli (increase in extracellular AK activity)

Compound: NC(N)=NOCC[C@H](N)C(=O)O.O.O=S(=O)(O)O [Canavanine sulfate monohydrate (L,+)]
- AK-based Prestwick Library Screening Results, E. faecium (fold increase in extracellular AK activity) (E. faecium; planktonic, […]): 1.1
- AK-based Prestwick Library Screening Results, S. aureus (fold increase in extracellular AK activity) ([1]; planktonic, […]): 1.6
- AK-based Prestwick Library Screening Results, K. pneumoniae (fold increase in extracellular AK activity) (K. pneumoniae; planktonic, […]): 0.9
- AK-based Prestwick Library Screening Results, A. baumannii (fold increase in extracellular AK activity) ([2]; planktonic, […]): 1.1
- AK-based Prestwick Library Screening Results, P. aeruginosa (fold increase in extracellular AK activity) (P. aeruginosa; planktonic, […]): 1.1
- AK-based Prestwick Library Screening Results, E. cloacae (fold increase in extracellular AK activity) (E. cloacae; planktonic, […]): 1.4
- AK-based Prestwick Library Screening Results, E. coli (fold increase in extracellular AK activity) (E. coli; planktonic, […]): 1.2

Compound: Pizotifen malate
- AK-based Prestwick library screening result, E. faecium (fold increase in extracellular AK activity) (E. faecium; planktonic E. faecium, positive cutoff 3-fold increase): 1.0
- AK-based Prestwick library screening result, S. aureus (fold increase in extracellular AK activity) ([1]; planktonic S. aureus, positive cutoff 3-fold increase): 0.7
- AK-based Prestwick library screening result, K. pneumoniae (fold increase in extracellular AK activity) (K. pneumoniae; planktonic K. pneumoniae, positive cutoff 3-fold increase): 0.7
- AK-based Prestwick library screening result, A. baumannii (fold increase in extracellular AK activity) ([2]; planktonic A. baumannii, positive cutoff 3-fold increase): 0.8
- AK-based Prestwick library screening result, P. aeruginosa (fold increase in extracellular AK activity) (P. aeruginosa; planktonic P. aeruginosa, positive cutoff 3-fold increase): 0.8
- AK-based Prestwick library screening result, E. cloacae (fold increase in extracellular AK activity) (E. cloacae; planktonic E. cloacae, positive cutoff 3-fold increase): 1.3
- AK-based Prestwick library screening result, E. coli (fold increase in extracellular AK activity) (E. coli; planktonic E. coli, positive cutoff 3-fold increase): 1.0

Compound: O=C(/C=C/C=C/c1ccc2c(c1)OCO2)N1CCCCC1 [Piperine]
- fold induction at 50 µM (E. faecium; [3]): 0.3
- fold induction at 50 µM [1, 4]: 0.2
- fold induction at 50 µM (K. pneumoniae; [5]): 0.3
- fold induction at 50 µM [2, 6]: 0.4
- fold induction at 50 µM (P. aeruginosa; [7]): 0.4
- fold induction at 50 µM (E. cloacae; [8]): 1.6
- fold induction at 50 µM (E. coli; planktonic, cutoff for positive 3-fold increase, read-out: AK-based Prestwick Library Screening Results, E. coli (fold increase in extracellular AK activity)): 0.4

Compound: CCNC1(c2cccs2)CCCCC1=O.Cl (centres unmarked) [Tiletamine hydrochloride]
- AK-based Prestwick library screening result, E. faecium (fold increase in extracellular AK activity) (E. faecium; planktonic E. faecium, […]): 1.0
- AK-based Prestwick library screening result, S. aureus (fold increase in extracellular AK activity) ([1]; planktonic S. aureus, […]): 1.1
- AK-based Prestwick library screening result, K. pneumoniae (fold increase in extracellular AK activity) (K. pneumoniae; planktonic K. pneumoniae, […]): 1.1
- AK-based Prestwick library screening result, A. baumannii (fold increase in extracellular AK activity) ([2]; planktonic A. baumannii, […]): 1.6
- AK-based Prestwick library screening result, P. aeruginosa (fold increase in extracellular AK activity) (P. aeruginosa; planktonic P. aeruginosa, […]): 1.1
- AK-based Prestwick library screening result, E. cloacae (fold increase in extracellular AK activity) (E. cloacae; planktonic E. cloacae, […]): 1.4
- AK-based Prestwick library screening result, E. coli (fold increase in extracellular AK activity) (E. coli; planktonic E. coli, […]): 1.2

Compound: CN1[C@@H]2CCC[C@H]1CC(=O)C2.Cl [Pseudopelletierine hydrochloride]
- AK-based Prestwick Library Screening Results, E. faecium (fold increase in extracellular AK activity) (E. faecium; [9]): 0.9
- AK-based Prestwick Library Screening Results, S. aureus (fold increase in extracellular AK activity) [1, 9]: 1.0
- AK-based Prestwick Library Screening Results, K. pneumoniae (fold increase in extracellular AK activity) (K. pneumoniae; [9]): 1.2
- AK-based Prestwick Library Screening Results, A. baumannii (fold increase in extracellular AK activity) [2, 9]: 1.2
- AK-based Prestwick Library Screening Results, P. aeruginosa (fold increase in extracellular AK activity) (P. aeruginosa; [9]): 1.1
- AK-based Prestwick Library Screening Results, E. cloacae (fold increase in extracellular AK activity) (E. cloacae; [9]): 1.5
- AK-based Prestwick Library Screening Results, E. coli (fold increase in extracellular AK activity) (E. coli; planktonic, […]): 1.4

Compound: Nc1c2c(nc3ccccc13)CCCC2O.O=C(O)/C=C\C(=O)O (racemic) [Hydroxytacrine maleate (R,S)]
- AK-based Prestwick Library Screening Results, E. faecium (increase in extracellular AK activity) (E. faecium; planktonic E. faecium, cutoff for positive-scoring molecules 3-fold increase): 1.0
- AK-based Prestwick Library Screening Results, S. aureus (increase in extracellular AK activity) ([1]; planktonic S. aureus, cutoff for positive-scoring molecules 3-fold increase): 3.0
- AK-based Prestwick Library Screening Results, K. pneumoniae (increase in extracellular AK activity) (K. pneumoniae; planktonic K. pneumoniae, cutoff for positive-scoring molecules 3-fold increase): 1.0
- AK-based Prestwick Library Screening Results, A. baumannii (increase in extracellular AK activity) ([2]; planktonic A. baumannii, cutoff for positive-scoring molecules 3-fold increase): 1.0
- AK-based Prestwick Library Screening Results, P. aeruginosa (increase in extracellular AK activity) (P. aeruginosa; planktonic P. aeruginosa, cutoff for positive-scoring molecules 3-fold increase): 1.0
- AK-based Prestwick Library Screening Results, E. cloacae (increase in extracellular AK activity) (E. cloacae; planktonic E. cloacae, cutoff for positive-scoring molecules 3-fold increase): 1.3
- AK-based Prestwick Library Screening Results, E. coli (increase in extracellular AK activity) (E. coli; planktonic E. coli, […]): 1.3

Compound: C[C@H](CCC(=O)O)[C@H]1CC[C@H]2[C@@H]3[C@@H](O)C[C@@H]4C[C@H](O)CC[C@]4(C)[C@H]3CC[C@]12C [Urosiol]
- AK-based Prestwick Library Screening Results, E. faecium (fold increase in extracellular AK activity) (E. faecium; [10]): 1.0
- AK-based Prestwick Library Screening Results, S. aureus (fold increase in extracellular AK activity) [1, 10]: 1.2
- AK-based Prestwick Library Screening Results, K. pneumoniae (fold increase in extracellular AK activity) (K. pneumoniae; [10]): 1.0
- AK-based Prestwick Library Screening Results, A. baumannii (fold increase in extracellular AK activity) [2, 10]: 1.3
- AK-based Prestwick Library Screening Results, P. aeruginosa (fold increase in extracellular AK activity) (P. aeruginosa; [10]): 1.2
- AK-based Prestwick Library Screening Results, E. cloacae (fold increase in extracellular AK activity) (E. cloacae; [10]): 1.4
- AK-based Prestwick Library Screening Results, E. coli (fold increase in extracellular AK activity) (E. coli; [10]): 1.2

Compound: NS(=O)(=O)c1cc2c(cc1Cl)N=CNS2(=O)=O [Chlorothiazide]
- fold induction at 50 µM (E. faecium; [11]): 1
- fold induction at 50 µM [1, 12]: 0.8
- fold induction at 50 µM (K. pneumoniae; [13]): 0.7
- fold induction at 50 µM [2, 14]: 0.9
- fold induction at 50 µM (P. aeruginosa; [15]): 0.9
- fold induction at 50 µM (E. cloacae; [16]): 0.9
- fold induction at 50 µM (E. coli; [17]): 0.9

Compound: CCCCNc1ccc(C(=O)OCCOCCOCCOCCOCCOCCOCCOCCOCCOC)cc1 [Benzonatate]
- fold induction at 50 µM (E. faecium; [11]): 0.8
- fold induction at 50 µM [1, 12]: 0.7
- fold induction at 50 µM (K. pneumoniae; [13]): 0.6
- fold induction at 50 µM [2, 14]: 0.7
- fold induction at 50 µM (P. aeruginosa; [15]): 0.6
- fold induction at 50 µM (E. cloacae; [16]): 0.7
- fold induction at 50 µM (E. coli; [17]): 0.7

Compound: CO/N=C(\C(=O)N[C@@H]1C(=O)N2C(C(=O)O)=C(COC(N)=O)CS[C@H]12)c1ccco1 [Cefuroxime sodium salt]
- fold induction at 50 µM (E. faecium; cutoff for positive-scoring molecules 3-fold increase, read-out: AK-based Prestwick Library Screening Results, E. faecium (fold increase in extracellular AK activity)): 1
- fold induction at 50 µM ([1]; cutoff for positive-scoring molecules 3-fold increase, read-out: AK-based Prestwick Library Screening Results, S. aureus (fold increase in extracellular AK activity)): 3.4
- fold induction at 50 µM (K. pneumoniae; cutoff for positive-scoring molecules 3-fold increase, read-out: AK-based Prestwick Library Screening Results, K. pneumoniae (fold increase in extracellular AK activity)): 2.4
- fold induction at 50 µM ([2]; cutoff for positive-scoring molecules 3-fold increase, read-out: AK-based Prestwick Library Screening Results, A. baumannii (fold increase in extracellular AK activity)): 1.4
- fold induction at 50 µM (P. aeruginosa; cutoff for positive-scoring molecules 3-fold increase, read-out: AK-based Prestwick Library Screening Results, P. aeruginosa (fold increase in extracellular AK activity)): 1.6
- fold induction at 50 µM (E. cloacae; cutoff for positive-scoring molecules 3-fold increase, read-out: AK-based Prestwick Library Screening Results, E. cloacae (fold increase in extracellular AK activity)): 1.6
- fold induction at 50 µM (E. coli; cutoff for positive-scoring molecules 3-fold increase, read-out: AK-based Prestwick Library Screening Results, E. coli (fold increase in extracellular AK activity)): 12.1

Compound: CNCC(O)c1ccc(OC(=O)C(C)(C)C)c(OC(=O)C(C)(C)C)c1 (centres unmarked) [Dipivefrin hydrochloride]
- fold induction at 50 µM (E. faecium; [3]): 1
- fold induction at 50 µM [1, 4]: 1.2
- fold induction at 50 µM (K. pneumoniae; [5]): 1.3
- fold induction at 50 µM [2, 6]: 1.4
- fold induction at 50 µM (P. aeruginosa; [7]): 1.3
- fold induction at 50 µM (E. cloacae; [8]): 1.6
- fold induction at 50 µM (E. coli; planktonic, […], read-out: AK-based Prestwick Library Screening Results, E. coli (fold increase in extracellular AK activity)): 1.4

Reference: patent US10004701B2, “Methods and compositions for treating infection” (UNIVERSITY OF ROCHESTER, priority 2012, dated 2018)
